Results taken from patent publication US3996359A, “Novel stereoisomeric component A of stereoisomeric mixtures of 2'-unsymmetrical 16,17-methylenedioxy steroid 21-acylates, compositions thereof, and method of treating therewith” (AB Bofors, priority 1972, dated 1976).

Test system: rats subjected to adrenalectomy (granuloma around implanted cotton wads)
Assay: granulom test (cotton-pellet test) on rats subjected to adrenalectomy: granuloma growth, thymus weight, body weight increase
Format: in vivo, rat (Sprague-Dawley)
Conditions: for Dose required to obtain 50% inhibition of Granuloma growth: Table 3, adrenalectomized young male Sprague-Dawley rats, topical in implanted cotton wads, day 8; for Dose required to obtain 25% inhibition of Body weight Increase / Dose required to obtain 50% inhibition of Thymus weight: 11520 min
Text: In the following this active stereoisomeric component will always be designated B. As regards the steroids referred to in connection with the present invention the stereoisomeric mixture as well as the individual stereoisomeric components A and B have been investigated with regard to antiinflammatory activity in granulom test on rats subjected to adrenalectomy. The experimental procedure used corresponds largely to that described by G. Engelhardt: Arzneimittel-Forschung, 13, p. 588, 1963. According to this procedure the test substances are applied topically in the implanted cottom wads. It is thereby possible to study the local antiinflammatory effect in granulomas and also systemic effects in the form of retrogression of thymus and inhibition of bodyweight growth.
Young male rats of the Sprague-Dawley strain weighing about 110-130 g were subjected to adrenalectomy under ether narcosis. Two sterilized cottom wads of each about 6 mg were implanted simultaneously subcutaneously on the lateral side of the spinal. After awakening the animals were stored 5 per cage and were supplied with normal food and 1% sodium chloride solution as drinking water. On the eighth test day the animals were sacrificed by ether narcosis. The granuloma formed around the cotton wads were carefully recovered and thymus and body weights were measured. The two granuloma from each animal were dried over night at 80° C and weighed. After subtraction of the initial weight of the cotton wads the weight increase was used as a measure of the granulom growth.
The test substances were used dissolved in ethyl acetate. Under aseptic conditions 0.05 ml of said solutions were injected into each of the cotton wads, whereafter the solvent was allowed to evaporate in the desiccator. Normally 3 concentrations of each test substance with the standard doses 3.3, 30 and 270 γ/animal were investigated. Each test group normally comprised 10 rats. The cotton wads of the control group were injected with only ethyl acetate, but were in other respects treated in the same way. When considering the effects of the test substances the average values of granulom growth, thymus weight and body weight increase day 0-8 were measured in each group in absolute figures and in % of the corresponding figure of the control group. Dose-response curves were drafted and used for estimating the doses giving 50 % reduction of granulom growth and of thymus weight and 25 % decrease of body weight increase.
The following Table 4 discloses the results of the cotton-pellet test hereinbefore described, giving in addition figures for the therapeutic ratios, that is, the ratios of the ED50 for thymus weight inhibition divided by the ED50 for granuloma formation inhibition, and the ED25 for body weight increase inhibition over the ED50 for granuloma formation inhibition. As will be recognized, the higher the number for the therapeutic ratio, the more favorable the therapeutic ratio. […] As will be noted for the table, the therapeutic ratio for thymus over granuloma for the Component A esters is 4.2, 7.1, 4.5, 2.6, 2.2, 1.7, 2.5 and 1.7 times as good as it is for the corresponding Component B ester isomer, whereas the therapeutic ratio for the Component A ester isomer as far as body weight is granuloma 2.7, 3.3, 9.8, 6.4, 2.3, 2.8, 3.3 and 2.8 times as favorable as for the corresponding Component B ester isomer.

SMILES | Dose required to obtain 50% inhibition of Granuloma growth | ED25 body weight increase inhibition (rat, in vivo) [µg/animal] | ED50 thymus weight inhibition (rat, in vivo) [µg/animal] | Therapeutic ratio body weight/granuloma (rat, in vivo) | Therapeutic ratio thymus/granuloma (rat, in vivo) | Dose required to obtain 25% inhibition of Body weight Increase (rat, in vivo) | Dose required to obtain 50% inhibition of Thymus weight (rat, in vivo) | Therapeutic ratio body weight/granuloma (Table 4, ED25 body weight increase inhibition over ED50 granuloma formation inhibition) | Therapeutic ratio thymus/granuloma (Table 4, ED50 thymus weight inhibition divided by ED50 granuloma formation inhibition)
CCCC1O[C@@H]2C[C@H]3[C@@H]4CCC5=CC(=O)C=C[C@]5(C)[C@@]4(F)[C@@H](O)C[C@]3(C)[C@]2(C(=O)COC(=O)c2cc3ccccc3o2)O1 (single isomer, unassigned) [20 A] | < 3 γ/animal | 50 | 90 | > 16.7 | > 30.0 | 50 γ/animal | 90 γ/animal |  | 
CC1O[C@@H]2C[C@H]3[C@@H]4CCC5=CC(=O)C=C[C@]5(C)[C@@]4(F)[C@@H](O)C[C@]3(C)[C@]2(C(=O)COC(=O)c2cccnc2)O1 (single isomer, unassigned) [17 B] | 3 γ/animal |  |  |  |  | 20 γ/animal | 13 γ/animal |  | 
CCCC1O[C@@H]2C[C@H]3[C@@H]4C[C@H](F)C5=CC(=O)C=C[C@]5(C)[C@@]4(F)[C@@H](O)C[C@]3(C)[C@]2(C(=O)COC(=O)c2cc3ccccc3o2)O1 (single isomer, unassigned) [25 A] | < 3 γ/animal | 20 | 15 | > 6.7 | > 5.0 | 20 γ/animal | 15 γ/animal |  | 
CC1O[C@@H]2C[C@H]3[C@@H]4C[C@H](F)C5=CC(=O)C=C[C@]5(C)[C@@]4(F)[C@@H](O)C[C@]3(C)[C@]2(C(=O)COC(=O)c2cc3ccccc3o2)O1 (stereo partly shown) [23 A] |  | 10 | 10 |  |  |  |  | > 3.3 | > 3.3
CCCC1O[C@@H]2C[C@H]3[C@@H]4C[C@H](F)C5=CC(=O)C=C[C@]5(C)[C@@]4(F)[C@@H](O)C[C@]3(C)[C@]2(C(=O)CO)O1 (single isomer, unassigned) [8 B] | 4 γ/animal |  |  |  |  | 50 γ/animal | 10 γ/animal |  | 
CCCC1OC2CC3C4CCC5=CC(=O)C=CC5(C)C4(F)C(O)CC3(C)C2(C(=O)COC(=O)c2cc3ccccc3o2)O1 (mixture of isomers) [20 A+B] | < 3 γ/animal |  |  |  |  | 20 γ/animal | 25 γ/animal |  | 
CCC1O[C@@H]2C[C@H]3[C@@H]4CCC5=CC(=O)C=C[C@]5(C)[C@@]4(F)[C@@H](O)C[C@]3(C)[C@]2(C(=O)CO)O1 (single isomer, unassigned) [2 B] | 10 γ/animal |  |  |  |  | 100 γ/animal | 60 γ/animal |  | 
CCCCCC1O[C@@H]2C[C@H]3[C@@H]4CCC5=CC(=O)C=C[C@]5(C)[C@@]4(F)[C@@H](O)C[C@]3(C)[C@]2(C(=O)CO)O1 (single isomer, unassigned) [5 A] | 30 γ/animal |  |  |  |  | > 270 γ/animal | 90 γ/animal |  | 
CCCC1O[C@@H]2C[C@H]3[C@@H]4CCC5=CC(=O)C=C[C@]5(C)[C@H]4[C@@H](O)C[C@]3(C)[C@]2(C(=O)COC(=O)c2cc3ccccc3o2)O1 (single isomer, unassigned) [28 A] |  | 100 | 100 | > 33.3 | > 33.3 |  |  |  | 
CC1O[C@@H]2C[C@H]3[C@@H]4C[C@H](F)C5=CC(=O)C=C[C@]5(C)[C@@]4(F)[C@@H](O)C[C@]3(C)[C@]2(C(=O)CO)O1 (single isomer, unassigned) [7 B] | 10 γ/animal |  |  |  |  | 15 γ/animal | 6 γ/animal |  | 
